Values of other authors, collected in Sander's compilation of Henry's law constants (doi:10.1016/j.chemosphere.2021.129858).

Assay: Henry solubility constant Hcp at 298.15 K (mol/(m3 Pa))
Details: reference: Schwardt et al. (2021); cited value

| Compound | Henry solubility constant Hcp |
| --- | --- |
| c1ccc2c(c1)-c1cccc3cccc-2c13 [benzo[jk]fluorene] | 0.58 |
| c1ccc2ccccc2c1 [naphthalene] | 0.021 |
| Clc1cccc(Cl)c1 [1,3-dichlorobenzene] | 0.0031 |
| ClCC(Cl)(Cl)Cl [1,1,1,2-tetrachloroethane] | 0.005 |
| CCCc1ccccc1 [propylbenzene] | 0.0009 |
| CCc1ccccc1 [ethylbenzene] | 0.0014 |
| ClCC(Cl)Cl [1,1,2-trichloroethane] | 0.011 |
| Cc1ccc(C)cc1 [1,4-dimethylbenzene] | 0.0015 |
| c1cc2c3c(cccc3c1)CC2 [acenaphthene] | 0.054 |
| CCCl [chloroethane] | 0.00081 |
| C=C(Cl)Cl [1,1-dichloroethene] | 0.00037 |
| Cc1ccc(Cl)cc1Cl [2,4-dichloro-1-methylbenzene] | 0.0027 |
| CC(Cl)CCl (stereo not drawn) [1,2-dichloropropane] | 0.0037 |
| Cc1ccccc1 [methylbenzene] | 0.0016 |
| c1ccccc1 [benzene] | 0.0018 |
| CC(Cl)(Cl)Cl [1,1,1-trichloroethane] | 0.0006 |
| Cc1ccccc1C [1,2-dimethylbenzene] | 0.002 |
| c1ccc2c(c1)ccc1ccccc12 [phenanthrene] | 0.21 |
| Cc1cccc(C)c1 [1,3-dimethylbenzene] | 0.0014 |
| ClC=C(Cl)Cl [trichloroethene] | 0.0011 |
| ClCCl [dichloromethane] | 0.0039 |
| C=CCl [chloroethene] | 0.00041 |
| Clc1ccc(Cl)cc1 [1,4-dichlorobenzene] | 0.0032 |
| c1ccc2cc3ccccc3cc2c1 [anthracene] | 0.18 |
| ClC(Cl)=C(Cl)Cl [tetrachloroethene] | 0.00057 |
| Clc1ccccc1 [chlorobenzene] | 0.0024 |
| ClC(Cl)(Cl)Cl [tetrachloromethane] | 0.00034 |
| ClC(Cl)C(Cl)Cl [1,1,2,2-tetrachloroethane] | 0.023 |
